Measurements from PubChem BioAssay AID2060893 (Molecular Pharmacology Branch, DTP, NCI, 2025).

System: K86415-001-R-J1-PDC complex spheroids, viability
Assay: Anticancer human tumor K86415-001-R-J1-PDC patient-derived lung adenocarcinoma cell line growth inhibition [RAS]
Details: for IC50: curve of first compound; for viability, T/C: stronger effect = lower value
In short: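 Agents were tested in combination matrices in half-log decrements from a top concentration at or near clinical Cmax (10 microM if undetermined). Targets were multi-cell spheroids of tumour lines plus HUVEC and MSC stromal cells.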

[1] = second compound 0.000949 µM, first compound 0.0316 µM
[2] = second compound 0.000949 µM, first compound 0.1 µM
[3] = second compound 0.000949 µM, first compound 0.316 µM
[4] = second compound 0.000949 µM, first compound 1 µM
[5] = second compound 0.003 µM, first compound 0.0316 µM
[6] = second compound 0.003 µM, first compound 0.1 µM
[7] = second compound 0.003 µM, first compound 0.316 µM
[8] = second compound 0.003 µM, first compound 1 µM
[9] = second compound 0.00949 µM, first compound 0.0316 µM
[10] = second compound 0.00949 µM, first compound 0.1 µM
[11] = second compound 0.00949 µM, first compound 0.316 µM
[12] = second compound 0.00949 µM, first compound 1 µM
[13] = second compound 0.03 µM, first compound 0.0316 µM
[14] = second compound 0.03 µM, first compound 0.1 µM
[15] = second compound 0.03 µM, first compound 0.316 µM
[16] = second compound 0.03 µM, first compound 1 µM
[17] = second compound 0.0949 µM, first compound 0.0316 µM
[18] = second compound 0.0949 µM, first compound 0.1 µM
[19] = second compound 0.0949 µM, first compound 0.316 µM
[20] = second compound 0.0949 µM, first compound 1 µM
[21] = second compound 0.3 µM, first compound 0.0316 µM
[22] = second compound 0.3 µM, first compound 0.1 µM
[23] = second compound 0.3 µM, first compound 0.316 µM
[24] = second compound 0.3 µM, first compound 1 µM
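Also: spheroids exposed to agents for seven days before readout.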

SMILES: C=CC(=O)Nc1cc(Nc2nccc(-c3cn(C)c4ccccc34)n2)c(OC)cc1N(C)CCN(C)C + CCn1c(-c2cc(N3CCN(C)CC3)cnc2C(C)OC)c2c3cc(ccc31)-c1csc(n1)CC(NC(=O)C1CC1C)C(=O)N1CCCC(N1)C(=O)OCC(C)(C)C2
- IC50 (second compound 0.000949 µM): < 3.16 nM
- IC50 (second compound 0.003 µM): < 3.16 nM
- IC50 (second compound 0.00949 µM): < 3.16 nM
- IC50 (second compound 0.03 µM): < 3.16 nM
- IC50 (second compound 0.0949 µM): < 3.16 nM
- IC50 (second compound 0.3 µM): < 3.16 nM
- viability, T/C (second compound 0.000949 µM, first compound 0.00316 µM): 42.7%
- viability, T/C (second compound 0.000949 µM, first compound 0.01 µM): 48.3%
- viability, T/C [1]: 35.9%
- viability, T/C [2]: 38.2%
- viability, T/C [3]: 21.3%
- viability, T/C [4]: 12.4%
- viability, T/C (second compound 0.003 µM, first compound 0.00316 µM): 24.9%
- viability, T/C (second compound 0.003 µM, first compound 0.01 µM): 21.3%
- viability, T/C [5]: 14.2%
- viability, T/C [6]: 17%
- viability, T/C [7]: 8.65%
- viability, T/C [8]: 7.93%
- viability, T/C (second compound 0.00949 µM, first compound 0.00316 µM): 17.6%
- viability, T/C (second compound 0.00949 µM, first compound 0.01 µM): 9.97%
- viability, T/C [9]: 7.46%
- viability, T/C [10]: 8.25%
- viability, T/C [11]: 4.55%
- viability, T/C [12]: 4.52%
- viability, T/C (second compound 0.03 µM, first compound 0.00316 µM): 7.56%
- viability, T/C (second compound 0.03 µM, first compound 0.01 µM): 5.27%
- viability, T/C [13]: 5.75%
- viability, T/C [14]: 3.23%
- viability, T/C [15]: 3.09%
- viability, T/C [16]: 3.11%
- viability, T/C (second compound 0.0949 µM, first compound 0.00316 µM): 3.51%
- viability, T/C (second compound 0.0949 µM, first compound 0.01 µM): 3.84%
- viability, T/C [17]: 2.21%
- viability, T/C [18]: 2.65%
- viability, T/C [19]: 3.94%
- viability, T/C [20]: 3.24%
- viability, T/C (second compound 0.3 µM, first compound 0.00316 µM): 2.73%
- viability, T/C (second compound 0.3 µM, first compound 0.01 µM): 2.35%
- viability, T/C [21]: 2.65%
- viability, T/C [22]: 2.51%
- viability, T/C [23]: 2.55%
- viability, T/C [24]: 3.25%

SMILES: CC(C)NCC(C(=O)N1CCN(c2ncnc3c2C(C)CC3O)CC1)c1ccc(Cl)cc1 (centres undefined) + CCn1c(-c2cc(N3CCN(C)CC3)cnc2C(C)OC)c2c3cc(ccc31)-c1csc(n1)CC(NC(=O)C1CC1C)C(=O)N1CCCC(N1)C(=O)OCC(C)(C)C2
- IC50 (second compound 0.000949 µM): 43 nM
- IC50 (second compound 0.003 µM): < 31.6 nM
- IC50 (second compound 0.00949 µM): < 31.6 nM
- IC50 (second compound 0.03 µM): < 31.6 nM
- IC50 (second compound 0.0949 µM): < 31.6 nM
- IC50 (second compound 0.3 µM): < 31.6 nM
- viability, T/C [1]: 52.1%
- viability, T/C [2]: 48.3%
- viability, T/C [3]: 28.8%
- viability, T/C [4]: 31.1%
- viability, T/C (second compound 0.000949 µM, first compound 3.16 µM): 29%
- viability, T/C (second compound 0.000949 µM, first compound 10 µM): 13.3%
- viability, T/C [5]: 25%
- viability, T/C [6]: 15.2%
- viability, T/C [7]: 13.7%
- viability, T/C [8]: 16%
- viability, T/C (second compound 0.003 µM, first compound 3.16 µM): 10.4%
- viability, T/C (second compound 0.003 µM, first compound 10 µM): 3.32%
- viability, T/C [9]: 12.1%
- viability, T/C [10]: 15.4%
- viability, T/C [11]: 6.91%
- viability, T/C [12]: 4.13%
- viability, T/C (second compound 0.00949 µM, first compound 3.16 µM): 1.63%
- viability, T/C (second compound 0.00949 µM, first compound 10 µM): 1%
- viability, T/C [13]: 5.32%
- viability, T/C [14]: 4.39%
- viability, T/C [15]: 3.56%
- viability, T/C [16]: 1.38%
- viability, T/C (second compound 0.03 µM, first compound 3.16 µM): 0.66%
- viability, T/C (second compound 0.03 µM, first compound 10 µM): 0.65%
- viability, T/C [17]: 2.69%
- viability, T/C [18]: 3.08%
- viability, T/C [19]: 1.6%
- viability, T/C [20]: 0.75%
- viability, T/C (second compound 0.0949 µM, first compound 3.16 µM): 0.62%
- viability, T/C (second compound 0.0949 µM, first compound 10 µM): 0.56%
- viability, T/C [21]: 2.88%
- viability, T/C [22]: 1.88%
- viability, T/C [23]: 1.86%
- viability, T/C [24]: 0.88%
- viability, T/C (second compound 0.3 µM, first compound 3.16 µM): 0.75%
- viability, T/C (second compound 0.3 µM, first compound 10 µM): 0.84%
